Series [1] concerns Mus musculus. Nature of the series: Toxicity in C57BL/6 mouse embryos at >=0.1 mg/kg/day, ip. The class given is organism-based. To be noted: in vivo.
The species entered for series [2] is Mus musculus. Nature of the series: Induction of cell growth arrest in mouse Pkd1-/- cells in presence of calcium. The format is functional, cell-based.
The nature of series [3]: Growth inhibition of mouse Pkd2-/- PC2-null cells assessed as cell viability at 100 nM after 24 hrs. The class given is functional. To be noted: read-out: Activity.
Another series deals with Pkd. Nature of the series: Increase in calcium response in mouse Pkd cells at […]. The class given is functional, cell-based.
The species entered for series [4] is Mus musculus. Nature of the series: Increase in PC2 dependent calcium release in mouse Pkd1-/- cells at 100 nM. The format is functional, cell-based.
Series [5] is filed under the species Mus musculus. Nature of the series: Growth inhibition of PC2 expressing mouse Pkd2+/- cells as cell death at 100 nM after 24 hrs. The class given is functional.
A short description of series [6]: Growth inhibition of PC2 reconstituted mouse Pkd2-/- cells assessed as cell death at 100 nM after 24 hrs. The class given is functional. Also noted: scale not given: the % may be the effect or the level left.
The species entered for series [7] is Mus musculus. Nature of the series: Increase in calcium release in mouse Pkd2-/- cells at 100 nM. The format is functional, cell-based.
The species named for series [8] is Mus musculus. Nature of the series: Increase in p21CIP/WAF expression in mouse Pkd1-/- cells at 100 nM after 96 hrs by Western blot analysis. The format is functional, cell-based.
For series [9], the species on record is Mus musculus. Nature of the series: Increase in PC2 dependent calcium release in mouse Pkd1+/- cells at 100 nM. The class given is functional, cell-based.
Series [10] in a line: Growth inhibition of mouse Pkd2-/- PC2-null cells assessed as cell death at 100 nM after 48 hrs. The class given is functional. Details: scale not given: the % may be the effect or the level left.
For series [11], the system named is Mus musculus. Nature of the series: Toxicity in C57BL/6 mouse embryos at […], ip. The format is organism-based. Also noted: route intraperitoneal. To be noted: in vivo.
Series [12] concerns Mus musculus. Nature of the series: Effect on Pkd1+/- and Pkd1+/- inter crossed mouse assessed as decrease in kidney cyst burden in […] genotypic embryos at 0.07 mg/kg, ip from E10.5 stage to untill birth relative to control. The format is functional, organism-based. Details: dose 0.07 mg/kg.
The species named for series [13] is Mus musculus. Nature of the series: Increase in calcium release in mouse Pkd1-/- cells at 50 uM in presence of RyR antagonist dantrolene. The format is functional, cell-based.

Among the data in ChEMBL document CHEMBL1147078, “Triptolide is a traditional Chinese medicine-derived inhibitor of polycystic kidney disease” (Proc Natl Acad Sci U S A, 2007) are Activity and viability values, retold here.

Activity calls are given as the source filed them. The rule behind the calls is not given here.

With `CC(C)[C@]12O[C@H]1[C@@H]1O[C@]13[C@]1(O[C@H]1C[C@H]1C4=C(CC[C@@]13C)C(=O)OC4)[C@@H]2O` [TRIPTOLIDE], the Activity result is reported as “Toxic” in the series with Mus musculus [1], >80% in [6], >50% in series [10] and “Non-toxic” in the series on Mus musculus [11]. Further, the outcome in the series filed under Mus musculus [2], in the series filed under Mus musculus [4], in the series filed under Mus musculus [5], in the series filed under Mus musculus [8], in the series filed under Mus musculus [9] and in the series with Mus musculus [12] was Active. For the same compound, the outcome in the series filed under Mus musculus [13] was Active. Further, the viability at 0.1 µM in series [3] was > 90%. Moreover, the outcome in the series on Pkd and in the series filed under Mus musculus [7] was inactive.
